Data taken from PMC4188013, “Insights into the binding of PARP inhibitors to the catalytic domain of human tankyrase-2” (Acta Crystallographica Section D: Biological Crystallography, 2014).
Read-outs that look alike come from different tables or passages of the source.

Tests used:
[1] = target: T1, PARP domain of TNKS2 (Homo sapiens, UniProt Q9H2K2); test: In vitro PARP assay, IC50 on TNKS2 (this study); format: biochemical; conditions: values from this study
T1 construct: His6; made in house; host or cells: Escherichia coli BL-21(DE3) RIPL
Description: Purified PARP domain of TNKS2 and either BSA or recombinant full-length 3BP2 protein were incubated in PARP reaction buffer (50 mM Tris pH 8.0, 4 mM MgCl2, 0.2 mM dithiothreitol) containing 0.5 mM NAD^+ as an exogenous source of ADP-ribose for 30 min at 25°C with or without PARP inhibitors. Reactions were stopped by adding sample buffer to the tubes. Samples were boiled and separated on a 4–20% SDS–PAGE gel. The gel was stained with Coomassie Blue, dried on a gel dryer and used for autoradiography analysis (Fig. 2 ▶).

[2] = test system: PARP1; design: method as in not given; conditions: cited from earlier work
[3] = test system: TNKS1; design: method as in not given; conditions: IC50 values available from the literature; ref not given; cited from earlier work
[4] = test system: PARP2; design: method as in not given; conditions: IC50 values available from the literature; ref not given; cited from earlier work
[5] = test system: TNKS2; design: method as in not given; conditions: IC50 values available from the literature; ref not given; cited from earlier work
[6] = IC50 values available from the literature, ref not given

T1 sequence (Q9H2K2 959-1164): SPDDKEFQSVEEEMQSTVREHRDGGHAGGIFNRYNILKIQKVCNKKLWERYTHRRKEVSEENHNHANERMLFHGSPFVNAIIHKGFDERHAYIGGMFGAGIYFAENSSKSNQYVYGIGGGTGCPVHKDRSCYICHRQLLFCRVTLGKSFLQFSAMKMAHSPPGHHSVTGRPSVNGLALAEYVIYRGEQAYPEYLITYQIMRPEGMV

Row | IC50 [1] [nM] | SMILES | IC50 [2] [nM] | IC50 [2, 6] [nM] | IC50 [4] [nM] | other results
1 | 1500 | Oc1cccc2c(O)nccc12 [1,5-IQD, 1,5-Isoquinolinediol] | – | – | – | –
2 | 416 | NC(=O)c1ccc(I)c([N+](=O)[O-])c1 [BSI-201, 4-Iodo-3-nitrobenzamide] | – | – | – | –
3 | 10000 | Nc1cccc2c(=O)[nH]ccc12 [5-AIQ, 5-Aminoisoquinolinone] | 250 | – | – | –
4 | > 30000 | NC(=O)c1cccc(N)c1 [3-AB, 3-Amino-benzamide] | – | 33000 | – | –
5 | 3600 | NC(=O)c1cccc2ncc(-c3ccc(Cl)cc3)nc12 [3,4-CPQ-5C, 3-(4-Chlorophenyl)-quinoxaline-5-carboxamide] | – | – | – | –
6 | 3000 | Cc1nc2c(c(=O)[nH]1)CSCC2 [DR-2313, 2-Methyl-3,5,7,8-tetrahydro-4H-thiopyrano[4,3-d]pyrimidin-4-one] | – | – | 240 | –
8 | – | Nc1ccc2oc(=O)ccc2c1I [INH2BP, 5-Iodo-6-amino-1,2-benzopyrone] | – | 5070 | 4750 | –
9 | – | Cc1nc2c(O)cccc2c(=O)[nH]1 [NU-1025, 8-Hydroxy-2-methyl-3-hydro-quinazolin-4-one] | – | 400 | – | –

Row | SMILES | IC50 [1] [nM] | IC50 [2] [nM] | IC50 [2, 6] [nM] | IC50 [4] [nM] | other results
10 | O=C1NCCc2c(OCCCCN3CCCCC3)cccc21 [DPQ] | 2800 | 23 | – | – | IC50 [3]: 33 nM
